# Assay results as given in patent publication US20160318987A1 (MEDIMMUNE LIMITED, priority 2013, published 2016).
# Where a SMILES comes first, the peptide text is derived from it. [ ]: non-standard residue; d: D form. αMeF = C[C@](N)(Cc1ccccc1)C(=O)O; Aib = CC(C)(N)C(=O)O
# Key:
# Assay type in all cases: cell-based
# Details in all cases: n = 2
# [1] = molecular target: T1, hGluc-R (Homo sapiens, UniProt P47871); test: cAMP functional assay, cells expressing human glucagon receptor (primary assay)
# T1 construct: expressed in transfected cells
# T1 sequence (P47871 26-477): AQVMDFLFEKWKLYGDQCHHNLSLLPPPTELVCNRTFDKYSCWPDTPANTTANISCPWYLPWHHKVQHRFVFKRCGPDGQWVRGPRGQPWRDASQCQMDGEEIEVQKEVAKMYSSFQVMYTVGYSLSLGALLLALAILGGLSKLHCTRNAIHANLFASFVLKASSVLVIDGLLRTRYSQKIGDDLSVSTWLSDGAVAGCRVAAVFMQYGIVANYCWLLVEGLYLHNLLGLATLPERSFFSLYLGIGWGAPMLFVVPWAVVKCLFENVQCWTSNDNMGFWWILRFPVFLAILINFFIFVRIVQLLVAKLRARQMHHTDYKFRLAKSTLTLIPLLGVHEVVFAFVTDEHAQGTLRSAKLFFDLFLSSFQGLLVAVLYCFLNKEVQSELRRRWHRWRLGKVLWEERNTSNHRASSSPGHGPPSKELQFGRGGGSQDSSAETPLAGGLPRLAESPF
# Experimental: The biological activities/receptor potencies of the synthetic GLP-1 peptides described herein are suitably tested for biological activity, e.g., stimulation of one or more cellular receptor responses. Stable cell lines expressing human, mouse, rat, or dog GLP-1 receptor (GLP-1R), glucagon receptor (GCGR) or glucose-dependent insulinotropic peptide (gastric inhibitory polypeptide) receptor (GIPR) are generated in HEK293 cells or CHO cells by standard methods.
# cAMP assays were performed using “assay buffer”: Assay Buffer: 0.1% BSA (Sigma #A3059) in HBSS (Sigma #H8264) with 25 mM HEPES, pH 7.4 and containing 0.5 mM IBMX (Sigma #17018).
# Low protein binding 384-well plates (Greiner #781280) are used to perform eleven 1 in 5 serial dilutions of test samples which are made in assay buffer. All sample dilutions are made in duplicate.
# A frozen cryo-vial of cells expressing the receptor of interest is thawed rapidly in a water-bath, transferred to pre-warmed assay buffer and spun at 240× g for 5 minutes. Cells are re-suspended in assay buffer at a batch-dependent optimized concentration (e.g. hGCGR cells at 2×10^5 cells/ml, hGLP-1R and hGIPR cells at 1×10^5 cells /ml).
# From the dilution plate, a 5 μL replica is stamped onto a black shallow-well u-bottom 384-well plate (Corning #3676). To this, 5 μL cell suspension is added and the plates incubated at room temperature for 30 minutes.
# cAMP levels are measured using a commercially available cAMP dynamic 2 HTRF kit (Cisbio, Cat #62AM4PEJ), following the two step protocol as per manufacturer's recommendations. In brief; anti-cAMP cryptate (donor fluorophore) and cAMP-d2 (acceptor fluorophore) are made up separately by diluting each 1/20 in conjugate & lysis buffer provided in the kit. 5 μL anti-cAMP cryptate is added to all wells of the assay plate, and 5 μL cAMP-d2 is added to all wells except non-specific binding (NSB) wells, to which conjugate and lysis buffer are added. Plates are incubated at room temperature for one hour and then read on an Envision (Perkin Elmer) using excitation wavelength of 320 nm and emission wavelengths of 620 nm & 665 nm. EC50 values of the synthetic peptides determined in cAMP assays are then determined.
# [2] = molecular target: T2, hGLP-1R (Homo sapiens, UniProt P43220); test: cAMP functional assay, cells expressing human GLP-1 receptor (primary assay)
# T2 construct: expressed in transfected cells
# T2 sequence (P43220 24-463): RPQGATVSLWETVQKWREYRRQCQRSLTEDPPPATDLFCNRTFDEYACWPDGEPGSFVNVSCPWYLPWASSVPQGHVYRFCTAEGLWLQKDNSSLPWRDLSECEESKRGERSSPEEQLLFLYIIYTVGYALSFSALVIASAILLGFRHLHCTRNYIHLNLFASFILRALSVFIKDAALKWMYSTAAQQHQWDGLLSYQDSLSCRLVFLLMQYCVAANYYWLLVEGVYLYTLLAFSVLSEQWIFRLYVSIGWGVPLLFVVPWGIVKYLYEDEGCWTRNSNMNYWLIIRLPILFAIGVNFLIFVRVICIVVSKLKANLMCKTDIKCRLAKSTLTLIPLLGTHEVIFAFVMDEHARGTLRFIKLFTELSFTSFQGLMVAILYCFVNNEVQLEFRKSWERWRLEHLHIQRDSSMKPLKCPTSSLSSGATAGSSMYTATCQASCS
# [3] = molecular target: T3, hGIP-R (Homo sapiens, UniProt P48546); test: cAMP functional assay, cells expressing human GIP receptor (primary assay)
# T3 construct: expressed in transfected cells
# T3 sequence (P48546 22-466): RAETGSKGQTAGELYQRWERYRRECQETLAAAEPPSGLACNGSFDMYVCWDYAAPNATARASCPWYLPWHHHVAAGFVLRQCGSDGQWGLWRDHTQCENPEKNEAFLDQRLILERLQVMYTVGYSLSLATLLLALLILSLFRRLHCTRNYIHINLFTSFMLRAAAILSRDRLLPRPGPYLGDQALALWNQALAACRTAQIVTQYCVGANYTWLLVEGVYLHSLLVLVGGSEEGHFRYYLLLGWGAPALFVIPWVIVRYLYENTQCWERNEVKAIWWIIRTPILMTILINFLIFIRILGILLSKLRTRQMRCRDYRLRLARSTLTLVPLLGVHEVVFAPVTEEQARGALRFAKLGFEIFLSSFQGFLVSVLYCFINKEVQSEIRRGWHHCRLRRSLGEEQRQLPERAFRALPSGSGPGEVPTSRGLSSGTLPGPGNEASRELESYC
SMILES,EC50 [1],EC50 [2],EC50 [3]
"CC[C@H](C)[C@H](NC(=O)[C@H](Cc1ccccc1)NC(=O)[C@H](CCC(=O)O)NC(=O)[C@H](CCCCN)NC(=O)[C@H](C)NC(=O)[C@H](C)NC(=O)[C@H](CCC(N)=O)NC(=O)CNC(=O)[C@H](CCC(=O)O)NC(=O)[C@H](CC(C)C)NC(=O)[C@H](Cc1ccc(O)cc1)NC(=O)[C@H](CO)NC(=O)[C@H](CO)NC(=O)[C@@H](NC(=O)[C@H](CC(=O)O)NC(=O)[C@H](CO)NC(=O)[C@@H](NC(=O)[C@H](Cc1ccccc1)NC(=O)[C@@H](NC(=O)CNC(=O)[C@H](CCC(=O)O)NC(=O)C(C)(C)NC(=O)[C@@H](N)Cc1c[nH]cn1)[C@@H](C)O)[C@@H](C)O)C(C)C)C(=O)N[C@@H](C)C(=O)NC(C)(C)C(=O)N[C@@H](CC(C)C)C(=O)N[C@H](C(=O)N[C@@H](CCCCN)C(=O)NCC(=O)N[C@@H](CCCNC(=N)N)C(N)=O)C(C)C [SEQ ID NO: 15, H-(Aib)^2-EGT^5 FTSDV^10 SSYLE^15 GQAAK^20 EFIA-(Aib)^25 LVKGR^30]",177 nM,0.0465 nM,177 nM
"CC[C@H](C)[C@H](NC(=O)[C@H](Cc1ccccc1)NC(=O)[C@H](CCC(=O)O)NC(=O)[C@H](CCCCN)NC(=O)[C@H](C)NC(=O)[C@H](C)NC(=O)[C@H](CCC(N)=O)NC(=O)CNC(=O)[C@H](CCC(=O)O)NC(=O)[C@H](CC(C)C)NC(=O)[C@](C)(Cc1ccc(O)cc1)NC(=O)[C@H](CO)NC(=O)[C@H](CO)NC(=O)[C@@H](NC(=O)[C@H](CC(=O)O)NC(=O)[C@H](CO)NC(=O)[C@@H](NC(=O)[C@H](Cc1ccccc1)NC(=O)[C@@H](NC(=O)CNC(=O)[C@H](CCC(=O)O)NC(=O)C(C)(C)NC(=O)[C@@H](N)Cc1c[nH]cn1)[C@@H](C)O)[C@@H](C)O)C(C)C)C(=O)N[C@@H](C)C(=O)N[C@@H](Cc1c[nH]c2ccccc12)C(=O)N[C@@H](CC(C)C)C(=O)N[C@H](C(=O)N[C@@H](CCCCN)C(=O)NCC(=O)N[C@@H](CCCNC(=N)N)C(N)=O)C(C)C [SEQ ID NO: 8, H-(Aib)^2-EGT^5 FTSDV^10 SS-(α-MeY)^13-LE^15 GQAAK^20 EFIAW^25 LVKGR^30]",156 nM,0.0229 nM,156 nM
"CC[C@H](C)[C@H](NC(=O)[C@H](Cc1ccccc1)NC(=O)[C@H](CCC(=O)O)NC(=O)[C@H](CCCCN)NC(=O)[C@H](C)NC(=O)[C@H](C)NC(=O)[C@H](CCC(N)=O)NC(=O)CNC(=O)[C@H](CCC(=O)O)NC(=O)[C@H](CC(C)C)NC(=O)C(C)(C)NC(=O)[C@H](CO)NC(=O)[C@H](CO)NC(=O)[C@@H](NC(=O)[C@H](CC(=O)O)NC(=O)[C@H](CO)NC(=O)[C@@H](NC(=O)[C@H](Cc1ccccc1)NC(=O)[C@@H](NC(=O)CNC(=O)[C@H](CCC(=O)O)NC(=O)C(C)(C)NC(=O)[C@@H](N)Cc1c[nH]cn1)[C@@H](C)O)[C@@H](C)O)C(C)C)C(=O)N[C@@H](C)C(=O)N[C@@H](Cc1c[nH]c2ccccc12)C(=O)N[C@@H](CC(C)C)C(=O)N[C@H](C(=O)N[C@@H](CCCCN)C(=O)NCC(=O)N[C@@H](CCCNC(=N)N)C(N)=O)C(C)C [SEQ ID NO: 10, H-(Aib)^2-EGT^5 FTSDV^10 SS-(Aib)^13-LE^15 GQAAK^20 EFIAW^25 LVKGR^30] (H-H[Aib]EGTFTSDVSS[Aib]LEGQAAKEFIAWLVKGR-NH2)",131 nM,0.0437 nM,131 nM
"CC[C@H](C)[C@H](NC(=O)[C@H](Cc1ccccc1)NC(=O)[C@H](CCC(=O)O)NC(=O)[C@H](CCCCN)NC(=O)[C@H](C)NC(=O)[C@H](C)NC(=O)[C@H](CCC(N)=O)NC(=O)CNC(=O)[C@H](CCC(=O)O)NC(=O)[C@H](CC(C)C)NC(=O)[C@H](Cc1ccc(O)cc1)NC(=O)[C@H](CO)NC(=O)[C@H](CO)NC(=O)[C@@H](NC(=O)[C@H](CC(=O)O)NC(=O)[C@H](CO)NC(=O)[C@@H](NC(=O)[C@H](Cc1ccccc1)NC(=O)[C@@H](NC(=O)CNC(=O)[C@H](CCC(=O)O)NC(=O)C(C)(C)NC(=O)[C@@H](N)Cc1c[nH]cn1)[C@@H](C)O)[C@@H](C)O)C(C)C)C(=O)N[C@@H](C)C(=O)N[C@@](C)(Cc1c[nH]c2ccccc12)C(=O)N[C@@H](CC(C)C)C(=O)N[C@H](C(=O)N[C@@H](CCCCN)C(=O)NCC(=O)N[C@@H](CCCNC(=N)N)C(N)=O)C(C)C [SEQ ID NO: 13, H-(Aib)^2-EGT^5 FTSDV^10 SSYLE^15 GQAAK^20 EFIA-(α-MeW)^25 LVKGR^30]",164 nM,0.026 nM,164 nM
"CC[C@H](C)[C@H](NC(=O)[C@](C)(Cc1ccccc1)NC(=O)[C@H](CCC(=O)O)NC(=O)[C@H](CCCCN)NC(=O)[C@H](C)NC(=O)[C@H](C)NC(=O)[C@H](CCC(N)=O)NC(=O)CNC(=O)[C@H](CCC(=O)O)NC(=O)[C@H](CC(C)C)NC(=O)[C@](C)(Cc1ccccc1)NC(=O)[C@H](CO)NC(=O)[C@H](CO)NC(=O)[C@@H](NC(=O)[C@H](CC(=O)O)NC(=O)[C@H](CO)NC(=O)[C@@H](NC(=O)[C@](C)(Cc1ccccc1)NC(=O)[C@H](CO)NC(=O)CNC(=O)[C@H](CCC(=O)O)NC(=O)C(C)(C)NC(=O)[C@@H](N)Cc1c[nH]cn1)[C@@H](C)O)C(C)C)C(=O)N[C@@H](C)C(=O)N[C@@](C)(Cc1ccccc1)C(=O)N[C@@H](CC(C)C)C(=O)N[C@H](C(=O)N[C@@H](CCCCN)C(=O)NCC(=O)NCC(=O)N[C@@H](CO)C(=O)N[C@@H](CO)C(=O)NCC(=O)N[C@@H](CO)C(=O)N[C@@H](CO)C(=O)NCC(=O)N[C@@H](CO)C(=O)N[C@@H](CO)C(=O)NCC(=O)N[C@@H](CCCCN)C(N)=O)C(C)C [SEQ ID NO: 48, H-(Aib)^2-EG-(S)^5-(α-MeF)^6-TSDV^10 SS-(α-MeF)^13-LE^15 GQAAK^20 E-(α-MeF)^22-IA-(α-MeF)^25 LVKG-(G)^30-(SSG)3-K] (H-H[Aib]EGS[αMeF]TSDVSS[αMeF]LEGQAAKE[αMeF]IA[αMeF]LVKGGSSGSSGSSGK-NH2)",82.9 nM,0.0238 nM,82.9 nM
"CC[C@H](C)[C@H](NC(=O)[C@](C)(Cc1ccccc1)NC(=O)[C@H](CCC(=O)O)NC(=O)[C@](C)(CCCCN)NC(=O)[C@H](C)NC(=O)[C@H](C)NC(=O)[C@H](CCC(N)=O)NC(=O)CNC(=O)[C@H](CCC(=O)O)NC(=O)[C@H](CC(C)C)NC(=O)[C@](C)(Cc1ccc(O)cc1)NC(=O)[C@H](CO)NC(=O)[C@H](CO)NC(=O)[C@@H](NC(=O)[C@H](CC(=O)O)NC(=O)[C@H](CO)NC(=O)[C@@H](NC(=O)[C@](C)(Cc1ccccc1)NC(=O)[C@H](CO)NC(=O)CNC(=O)[C@H](CCC(=O)O)NC(=O)C(C)(C)NC(=O)[C@@H](N)Cc1c[nH]cn1)[C@@H](C)O)C(C)C)C(=O)N[C@@H](C)C(=O)N[C@@](C)(Cc1c[nH]c2ccccc12)C(=O)N[C@@H](CC(C)C)C(=O)N[C@H](C(=O)N[C@@](C)(CCCCN)C(=O)NCC(=O)N[C@@](C)(CCCNC(=N)N)C(N)=O)C(C)C [SEQ ID NO: 57, H-(Aib)^2-EG-(S)^5-(α-MeF)^6-TSDV^10 SS-(α-MeY)^13-LE^15 GQAA-(α-MeK)^20 E-(α-MeF)^22-IA-(α-MeW)^25 LV-(α-MeK)^28-G-(α-MeR)^30]",19.9 nM,0.0271 nM,139 nM
"CC[C@H](C)[C@H](NC(=O)[C@H](Cc1ccccc1)NC(=O)[C@H](CCC(=O)O)NC(=O)[C@H](CCCCN)NC(=O)[C@H](C)NC(=O)[C@H](C)NC(=O)[C@H](CCC(N)=O)NC(=O)CNC(=O)[C@H](CCC(=O)O)NC(=O)[C@H](CC(C)C)NC(=O)[C@H](Cc1ccc(O)cc1)NC(=O)[C@H](CO)NC(=O)[C@H](CO)NC(=O)[C@@H](NC(=O)[C@H](CC(=O)O)NC(=O)[C@H](CO)NC(=O)[C@@H](NC(=O)[C@](C)(Cc1ccccc1)NC(=O)[C@@H](NC(=O)CNC(=O)[C@H](CCC(=O)O)NC(=O)C(C)(C)NC(=O)[C@@H](N)Cc1c[nH]cn1)[C@@H](C)O)[C@@H](C)O)C(C)C)C(=O)N[C@@H](C)C(=O)N[C@@H](Cc1c[nH]c2ccccc12)C(=O)N[C@@H](CC(C)C)C(=O)N[C@H](C(=O)N[C@@H](CCCCN)C(=O)NCC(=O)N[C@@H](CCCNC(=N)N)C(N)=O)C(C)C [SEQ ID NO: 6, H-(Aib)^2-EGT^5-(α-MeF)^6-TSDV^10 SSYLE^15 GQAAK^20 EFIAW^25 LVKGR^30]",153 nM,0.026 nM,74.9 nM
